In patent US9550792B2, “Polycyclic substituted pyrazole kinase activity inhibitors and use thereof” (priority 2013, dated 2017):
“And” between values parts separate entries of the source, which are not always exact repeats. Identical values can stand only once. Like-named read-outs stand apart in the source and are kept apart here. Values belong to the compound of their own block, whether it stands above or below them.

Experiments:
Plasma stability = format: in vitro ADME; conditions: rat plasma
Procedure: (§1) 300 μL blood collected from the rat was mixed with 30 μL methanol and 2 mL ethyl acetate. The samples were vortexed for 3 min and centrifuged at 4000 rpm for 15 min. The supernatant was introduced into another centrifugal tube. The lower layer was repeatedly extracted and then the supernatants were combined and dried with nitrogen gas. After redissolution with 150 μL methanol, they were filtered by 0.22 μm membrane and then subjected to analysis with a injection volume of 20 μL.
[…] The samples were prepared according to the method of 3.1. 20 μL were introduced into the HPLC system and the peak area is recorded for analysis to determine the stability of compound 1 and 2 in plasma.

[1] = Pharmacokinetics after single oral dose in rats; format: in vivo, Wistar rat
Procedure: as §1
An amount of compound was taken accurately to prepare CMC-Na aqueous solution containing 3 mg/mL of drug. 12 healthy male Wister rats were randomly assigned to two groups, each group including 6 rats. The first group was administrated orally compound 1. The second group was administrated orally compound 2. The doses were both 30 mg/kg (corresponding to 2 mL for each rat). The rats were fasting for 12 h before administration and free access to water. 0.6 mL blood samples were collected at 0.5, 1, 1.5, 2, 2.5, 3, 5, 8, 12 and 24 h after drug administration from the venous sinuses and added into EP tubes which were rinsed with heparin sodium previously. The samples were centrifuged at 4,000 r/min for 15 min and the upper plasma were obtained. 300 μL plasma was subjected to analysis and the chromatogram and peak area were recorded. The plasma concentrations of compounds 1 and 2 were calculated to give average concentration-time curve.
DAS 2.0 program was used to analyze plasma concentration vs. time data after s single oral dose (Table 6, 7). Fitting and the AIC methods were used to determine the model. The analysis was based on the principle that the larger fitting and the smaller AIC, the better model. The oral administration was consistent with the two-compartment model. The statistical distance parameter is used to compare the 2 compounds for the pharmacokinetic parameters.

FLT4/VEGFR3 = FLT4/VEGFR3 (Homo sapiens, UniProt P35916); assay: Kinase IC50, 33P labeled isotope method; format: biochemical
FLT4/VEGFR3, sequence (P35916 845-1173 limits assumed): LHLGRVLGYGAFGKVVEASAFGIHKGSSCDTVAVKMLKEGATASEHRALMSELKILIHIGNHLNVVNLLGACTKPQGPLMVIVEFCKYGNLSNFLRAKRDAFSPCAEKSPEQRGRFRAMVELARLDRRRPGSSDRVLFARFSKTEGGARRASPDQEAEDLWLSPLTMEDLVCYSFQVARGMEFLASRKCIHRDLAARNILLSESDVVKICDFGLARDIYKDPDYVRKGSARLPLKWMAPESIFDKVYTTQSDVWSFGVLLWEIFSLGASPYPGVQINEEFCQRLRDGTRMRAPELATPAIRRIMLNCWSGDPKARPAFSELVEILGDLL

lung cancer cell H1299 = assay: Anti-tumor activity in vitro, MTT method; format: cell-based; conditions: Homo sapiens, NCI-H1299, 48 h, read-out: H1299 (IC50/μM)
[2] = male, Wistar, plasma, rat, oral 30 mg/kg

Structure (SMILES): O=C(Nc1ccc(CN2CCOCC2)cc1)c1n[nH]cc1Nc1ncnc2sccc12 [Compound I-2, 4-(4-thieno[2,3-d]pyrimidinylamino)-N-(4-((4-morpholinyl)methyl)phenyl)-1H-3-pyrazolecarboxamide]
plasma stability in 24 h (in words) (Plasma stability; 24 h): good plasma stability | Plasma stability (HPLC reading) (Plasma stability; Time 0 h): 2.36 | Plasma stability (HPLC reading) (Plasma stability; Time 1 h): 2.34 | Plasma stability (HPLC reading) (Plasma stability; Time 2 h): 2.29 | Plasma stability (HPLC reading) (Plasma stability; Time 3 h): 2.21 | Plasma stability (HPLC reading) (Plasma stability; Time 5 h): 2.16 | Plasma stability (HPLC reading) (Plasma stability; Time 8 h): 2.11 | Plasma stability (HPLC reading) (Plasma stability; Time 12 h): 1.97 | Plasma stability (HPLC reading) (Plasma stability; Time 24 h): 1.85 | Cmax [1, 2]: 265 ± 52.9 ng/mL | Tmax [1, 2]: 14 ± 5.29 h | half-life [1, 2]: 14.7 ± 4.23 h | AUC(0-t) ([1]; male, Wistar, plasma, rat, oral 30 mg/kg, read-out: AUC 0-24): 4350 ± 1300 ng·h/mL | MRT last ([1]; male, Wistar, plasma, rat, oral 30 mg/kg, read-out: MRT 0-24): 13.8 ± 1.29 h | concentration at 0.5 h ([1]; male, Wistar, rat, plasma, po, 30 mg/kg, mean of rats, oral 30 mg/kg, time 0.5 h, read-out: Plasma concentration, mean): 50.8 ng/mL | concentration at 1 h ([1]; male, Wistar, rat, plasma, po, 30 mg/kg, mean of rats, oral 30 mg/kg, time 1 h, read-out: Plasma concentration, mean): 85.3 ng/mL | concentration at 2 h ([1]; male, Wistar, rat, plasma, po, 30 mg/kg, mean of rats, oral 30 mg/kg, time 2 h, read-out: Plasma concentration, mean): 53.2 ng/mL | concentration at 2.5 h ([1]; male, Wistar, rat, plasma, po, 30 mg/kg, mean of rats, oral 30 mg/kg, time 2.5 h, read-out: Plasma concentration, mean): 57.6 ng/mL | concentration at 3 h ([1]; male, Wistar, rat, plasma, po, 30 mg/kg, mean of rats, oral 30 mg/kg, time 3 h): 64.5 ng/mL | concentration at 5 h ([1]; male, Wistar, rat, plasma, po, 30 mg/kg, mean of rats, oral 30 mg/kg, time 5 h): 122 ng/mL | concentration at 8 h ([1]; male, Wistar, rat, plasma, po, 30 mg/kg, mean of rats, oral 30 mg/kg, time 8 h, read-out: Plasma concentration, mean): 162 ng/mL | concentration at 12 h ([1]; male, Wistar, rat, plasma, po, 30 mg/kg, mean of rats, oral 30 mg/kg, time 12 h, read-out: Plasma concentration, mean): 264 ng/mL | concentration at 24 h ([1]; male, Wistar, rat, plasma, po, 30 mg/kg, mean of rats, oral 30 mg/kg, time 24 h): 157 ng/mL | concentration at 2.5 h ([1]; male, Wistar, rat, plasma, po, 30 mg/kg, rat No. 1-6, oral 30 mg/kg, time 2.5 h, read-out: Plasma concentration, individual rats): 72.9 ng/mL | concentration at 12 h ([1]; male, Wistar, rat, plasma, po, 30 mg/kg, rat No. 1-6, oral 30 mg/kg, time 12 h, read-out: Plasma concentration, individual rats): 253 ng/mL | Plasma concentration, individual rats ([1]; rat No. 1-6, oral 30 mg/kg, time 0.5 h, 30 mg/kg): 29.26 ng*ml/1 and 123.49 ng*ml/1 and 25.98 ng*ml/1 and 24.36 ng*ml/1 | Plasma concentration, individual rats ([1]; rat No. 1-6, oral 30 mg/kg, time 1 h, 30 mg/kg): 208.71 ng*ml/1 and 28.68 ng*ml/1 and 18.66 ng*ml/1 | Plasma concentration, individual rats ([1]; rat No. 1-6, oral 30 mg/kg, time 2 h, 30 mg/kg): 53.04 ng*ml/1 and 88.44 ng*ml/1 and 37.16 ng*ml/1 and 47.57 ng*ml/1 and 47.03 ng*ml/1 and 46.08 ng*ml/1 | Plasma concentration, individual rats ([1]; rat No. 1-6, oral 30 mg/kg, time 2.5 h, 30 mg/kg): 74.79 ng*ml/1 and 57.6 ng*ml/1 and 39.48 ng*ml/1 and 49.89 ng*ml/1 and 51.04 ng*ml/1 | Plasma concentration, individual rats ([1]; rat No. 1-6, oral 30 mg/kg, time 3 h, 30 mg/kg): 81.11 ng*ml/1 and 87.89 ng*ml/1 and 57.21 ng*ml/1 and 41.79 ng*ml/1 and 65.08 ng*ml/1 and 53.93 ng*ml/1 | Plasma concentration, individual rats ([1]; rat No. 1-6, oral 30 mg/kg, time 5 h, 30 mg/kg): 124.06 ng*ml/1 and 272.93 ng*ml/1 and 86.12 ng*ml/1 and 78.03 ng*ml/1 and 94.32 ng*ml/1 and 76.64 ng*ml/1 | Plasma concentration, individual rats ([1]; rat No. 1-6, oral 30 mg/kg, time 8 h, 30 mg/kg): 196.61 ng*ml/1 and 263.95 ng*ml/1 and 119.66 ng*ml/1 and 82.66 ng*ml/1 and 121.59 ng*ml/1 and 186.27 ng*ml/1 | Plasma concentration, individual rats ([1]; rat No. 1-6, oral 30 mg/kg, time 12 h, 30 mg/kg): 345.56 ng*ml/1 and 229.22 ng*ml/1 and 256.32 ng*ml/1 and 213.94 ng*ml/1 and 286.97 ng*ml/1 | Plasma concentration, individual rats ([1]; rat No. 1-6, oral 30 mg/kg, time 24 h, 30 mg/kg): 198.92 ng*ml/1 and 97.83 ng*ml/1 and 209.56 ng*ml/1 and 221.75 ng*ml/1 and 74.79 ng*ml/1 and 138.91 ng*ml/1 | pharmacokinetic parameters (in words) ([1]; rat, oral 30 mg/kg): acceptable

IC50 (FLT4/VEGFR3; 20 μM ATP, read-out: IC50* FLT4/VEGFR3): 4 nM
Structure (SMILES): Cc1cc2c(Nc3c[nH]nc3C(=O)Nc3ccc(CN4CCN(C)CC4)cc3)ncnc2s1 [Compound I-3, 4-(4-(6-methylthieno[2,3-d]pyrimidinyl)amino)-N-(4-((4-methyl-1-piperazinyl)methyl)phenyl)-1H-3-pyrazolecarboxamide]

Structure (SMILES): CN1CCN(Cc2ccc(NC(=O)c3n[nH]cc3Nc3ncnc4[nH]ccc34)cc2)CC1 [Compound I-11, 4-(4-(7H-pyrrolo[2,3-d]pyrimidinyl)amino)-N-(4-((4-methyl-1-piperazinyl)methyl)phenyl)-1H-3-pyrazolecarboxamide]
IC50 (FLT4/VEGFR3): 4 nM

Structure (SMILES): CN1CCN(Cc2ccc(NC(=O)c3n[nH]cc3Nc3ncnc4occc34)cc2)CC1 [Compound I-21, 4-(4-furo[2,3-d]pyrimidinylamino)-N-(4-((4-methyl-1-piperazinyl)methyl)phenyl)-1H-3-pyrazolecarboxamide]
IC50 (lung cancer cell H1299): 7.66 µM
